In patent US20260193226A1, “MICROBIOCIDAL TETRAHYDROISOQUINOLINE DERIVATIVES” (SYNGENTA CROP PROTECTION AG, priority 2022, published 2026):

Tests used:
Alternaria solani = Alternaria solani / tomato / leaf disc (early blight); assay type: in vivo; details: foliar, compared to untreated control
Procedure: Example B1: Alternaria solani/Tomato/Leaf Disc (Early Blight) Tomato leaf disks cv. Baby are placed on agar in multiwell plates (24-well format) and sprayed with the formulated test compound diluted in water. The leaf disks are inoculated with a spore suspension of the fungus 2 days after application. The inoculated leaf disks are incubated at 23° C./21° C.

[1] = tested on: Glomerella lagenarium (Colletotrichum lagenarium); experiment: Glomerella lagenarium (Colletotrichum lagenarium) / liquid culture (anthracnose); assay type: cell-based; details: Colletotrichum orbiculare, compared to untreated control
Procedure: Example B3: Glomerella lagenarium (Colletotrichum lagenarium)/Liquid Culture (Anthracnose) Conidia of the fungus from cryogenic storage are directly mixed into nutrient broth (PDB potato dextrose broth). After placing a (DMSO) solution of test compound into a microtiter plate (96-well format), the nutrient broth containing the fungal spores is added. The test plates are incubated at 24° C. and the inhibition of growth is measured photometrically 3 to 4 days after application.

[2] = tested on: Monographella nivalis (Microdochium nivale); experiment: Monographella nivalis (Microdochium nivale) / liquid culture (foot rot cereals); assay type: cell-based; details: compared to untreated control
Procedure: (§1) Example B8: Monographella nivalis (Microdochium nivale)/Liquid Culture (Foot Rot Cereals) Conidia of the fungus from cryogenic storage are directly mixed into nutrient broth (PDB potato dextrose broth). After placing a (DMSO) solution of test compound into a microtiter plate (96-well format), the nutrient broth containing the fungal spores is added. The test plates are incubated at 24° C. and the inhibition of growth is determined photometrically 4 to 5 days after application.

[3] = tested on: Mycosphaerella arachidis (Cercospora arachidicola); experiment: Mycosphaerella arachidis (Cercospora arachidicola) / liquid culture (early leaf spot); assay type: cell-based; details: compared to untreated control
Procedure: as §1, with “B9: Mycosphaerella arachidis (Cercospora arachidicola)/Liquid” for “B8: Monographella nivalis (Microdochium nivale)/Liquid”, “(Early Leaf Spot)” for “(Foot Rot Cereals)”

Pyrenophora teres = Pyrenophora teres / barley / leaf disc preventative (net blotch); assay type: in vivo; details: foliar, compared to untreated control
Procedure: Example B12: Pyrenophora teres/Barley/Leaf Disc Preventative (Net Blotch) Barley leaf segments cv. Hasso are placed on agar in a multiwell plate (24-well format) and sprayed with the formulated test compound diluted in water. The leaf segments are inoculated with a spore suspension of the fungus 2 days after application. The inoculated leaf segments are incubated at 20° C. and 65% rh under a light regime of 12 h light/12 h darkness in a climate cabinet and the activity of a compound is assessed as disease control compared to untreated when an appropriate level of disease damage appears in untreated check leaf segments (5 to 7 days after application).

[4] = tested on: Mycosphaerella graminicola (Septoria tritici); experiment: Mycosphaerella graminicola (Septoria tritici) / liquid culture (Septoria blotch); assay type: cell-based; details: Zymoseptoria tritici, compared to untreated control
Procedure: as §1, with “B15: Mycosphaerella graminicola (Septoria tritici)/Liquid” for “B8: Monographella nivalis (Microdochium nivale)/Liquid”, “(Septoria Blotch)” for “(Foot Rot Cereals)”

CCCCCCC(=O)N1C[C@H](c2cnn(C)c2C)c2ccccc2[C@@H]1C (racemic) [Compound P-11, 1-[rac-(1S,4S)-4-(1,5-dimethylpyrazol-4-yl)-1-methyl-3,4-dihydro-1H-isoquinolin-2-yl]heptan-1-one]
≥ 80%: pest or weed control at 200 ppm (Alternaria solani) | inhibition of growth at 20 ppm [1] | inhibition of growth at 20 ppm [2] | inhibition of growth at 20 ppm [3] | pest or weed control at 200 ppm (Pyrenophora teres) | inhibition of growth at 20 ppm [4]

Cc1c([C@H]2CN(C(=O)OCCC3CCCCC3)[C@@H](C)c3ccccc32)cnn1C (racemic) [Compound P-16, 2-cyclohexylethyl rac-(1S,4S)-4-(1,5-dimethylpyrazol-4-yl)-1-methyl-3,4-dihydro-1H-isoquinoline-2-carboxylate]
≥ 80%: inhibition of growth at 20 ppm [1] | inhibition of growth at 20 ppm [2] | inhibition of growth at 20 ppm [3] | inhibition of growth at 20 ppm [4]

Cc1c([C@H]2CN(C(=O)CCCCC(F)F)[C@@H](C)c3ccccc32)cnn1C (racemic) [Compound P-27, 6,6-difluoro-1-[rac-(1S,4S)-4-(1,5-dimethylpyrazol-4-yl)-1-methyl-3,4-dihydro-1H-isoquinolin-2-yl]hexan-1-one]
≥ 80%: inhibition of growth at 20 ppm [2] | inhibition of growth at 20 ppm [3] | pest or weed control at 200 ppm (Pyrenophora teres) | inhibition of growth at 20 ppm [4]

CCCCCOC(=O)N1C[C@H](c2cnn(C)c2C)c2ccccc2[C@@H]1C (racemic) [Compound P-28, pentyl rac-(1S,4S)-4-(1,5-dimethylpyrazol-4-yl)-1-methyl-3,4-dihydro-1H-isoquinoline-2-carboxylate]
≥ 80%: pest or weed control at 200 ppm (Alternaria solani) | inhibition of growth at 20 ppm [1] | inhibition of growth at 20 ppm [2] | inhibition of growth at 20 ppm [3] | inhibition of growth at 20 ppm [4]

Cc1c([C@H]2CN(C(=O)CCCCCC(F)(F)F)[C@@H](C)c3ccccc32)cnn1C (racemic) [Compound P-29, 7,7,7-trifluoro-1-[rac-(1S,4S)-4-(1,5-dimethylpyrazol-4-yl)-1-methyl-3,4-dihydro-1H-isoquinolin-2-yl]heptan-1-one]
≥ 80%: pest or weed control at 200 ppm (Alternaria solani) | inhibition of growth at 20 ppm [2] | inhibition of growth at 20 ppm [3] | pest or weed control at 200 ppm (Pyrenophora teres) | inhibition of growth at 20 ppm [4]

CCCCCNC(=O)N1C[C@H](c2cnn(C)c2C)c2ccccc2[C@@H]1C (racemic) [Compound P-43, rac-(1S,4S)-4-(1,5-dimethylpyrazol-4-yl)-1-methyl-N-pentyl-3,4-dihydro-1H-isoquinoline-2-carboxamide]
≥ 80%: inhibition of growth at 20 ppm [2] | inhibition of growth at 20 ppm [3] | pest or weed control at 200 ppm (Pyrenophora teres) | inhibition of growth at 20 ppm [4]

Cc1c([C@H]2CN(C(=O)CCc3ccc(F)cc3F)[C@@H](C)c3ccccc32)cnn1C (racemic) [Compound P-45, 3-(2,4-difluorophenyl)-1-[rac-(1S,4S)-4-(1,5-dimethylpyrazol-4-yl)-1-methyl-3,4-dihydro-1H-isoquinolin-2-yl]propan-1-one]
≥ 80%: pest or weed control at 200 ppm (Alternaria solani) | inhibition of growth at 20 ppm [1] | inhibition of growth at 20 ppm [2] | inhibition of growth at 20 ppm [3] | pest or weed control at 200 ppm (Pyrenophora teres) | inhibition of growth at 20 ppm [4]

Cc1c(C2CN(C(=O)OCCC3CCCCC3)Cc3ccccc32)cnn1C (stereo not drawn) [Compound P-2, 2-cyclohexylethyl 4-(1,5-dimethylpyrazol-4-yl)-3,4-dihydro-1H-isoquinoline-2-carboxylate]
≥ 80%: inhibition of growth at 20 ppm [1] | inhibition of growth at 20 ppm [2] | inhibition of growth at 20 ppm [3] | inhibition of growth at 20 ppm [4]

CCCCCCC(=O)N1Cc2ccccc2C(c2cnn(C)c2C)C1 (stereo not drawn) [Compound P-4, 1-[4-(1,5-dimethylpyrazol-4-yl)-3,4-dihydro-1H-isoquinolin-2-yl]heptan-1-one]
≥ 80%: pest or weed control at 200 ppm (Alternaria solani) | inhibition of growth at 20 ppm [1] | inhibition of growth at 20 ppm [2] | inhibition of growth at 20 ppm [3] | inhibition of growth at 20 ppm [4]

Cc1c(C2CN(C(=O)CCc3ccc(F)cc3)Cc3ccccc32)cnn1C (stereo not drawn) [Compound P-7, 1-[4-(1,5-dimethylpyrazol-4-yl)-3,4-dihydro-1H-isoquinolin-2-yl]-3-(4-fluorophenyl)propan-1-one]
≥ 80%: pest or weed control at 200 ppm (Alternaria solani) | inhibition of growth at 20 ppm [4]

CCCCCCCC(=O)N1Cc2ccccc2C(c2cnn(C)c2C)C1 (stereo not drawn) [Compound P-10, 1-[4-(1,5-dimethylpyrazol-4-yl)-3,4-dihydro-1H-isoquinolin-2-yl]octan-1-one]
≥ 80%: inhibition of growth at 20 ppm [1] | inhibition of growth at 20 ppm [2] | inhibition of growth at 20 ppm [3] | inhibition of growth at 20 ppm [4]

Cc1c(C2CN(C(=O)CCc3ccc(Cl)cc3)Cc3ccccc32)cnn1C (stereo not drawn) [Compound P-22, 3-(4-chlorophenyl)-1-[4-(1,5-dimethylpyrazol-4-yl)-3,4-dihydro-1H-isoquinolin-2-yl]propan-1-one]
≥ 80%: pest or weed control at 200 ppm (Alternaria solani) | inhibition of growth at 20 ppm [3] | pest or weed control at 200 ppm (Pyrenophora teres) | inhibition of growth at 20 ppm [4]

Cc1c(C2CN(C(=O)CCCCCC(F)(F)F)Cc3ccccc32)cnn1C (stereo not drawn) [Compound P-30, 1-[4-(1,5-dimethylpyrazol-4-yl)-3,4-dihydro-1H-isoquinolin-2-yl]-7,7,7-trifluoro-heptan-1-one]
≥ 80%: inhibition of growth at 20 ppm [2] | inhibition of growth at 20 ppm [3] | inhibition of growth at 20 ppm [4]

CCCCCNC(=O)N1Cc2ccccc2C(c2cnn(C)c2C)C1 (stereo not drawn) [Compound P-31, 4-(1,5-dimethylpyrazol-4-yl)-N-pentyl-3,4-dihydro-1H-isoquinoline-2-carboxamide]
≥ 80%: pest or weed control at 200 ppm (Alternaria solani) | inhibition of growth at 20 ppm [3] | pest or weed control at 200 ppm (Pyrenophora teres) | inhibition of growth at 20 ppm [4]

Cc1c(C2CN(C(=O)NCC3CCCCC3)Cc3ccccc32)cnn1C (stereo not drawn) [Compound P-36, N-(cyclohexylmethyl)-4-(1,5-dimethylpyrazol-4-yl)-3,4-dihydro-1H-isoquinoline-2-carboxamide]
≥ 80%: pest or weed control at 200 ppm (Pyrenophora teres) | inhibition of growth at 20 ppm [4]

Cc1c(C2CN(C(=O)NCCC3CCCCC3)Cc3ccccc32)cnn1C (stereo not drawn) [Compound P-42, N-(2-cyclohexylethyl)-4-(1,5-dimethylpyrazol-4-yl)-3,4-dihydro-1H-isoquinoline-2-carboxamide]
≥ 80%: inhibition of growth at 20 ppm [2] | inhibition of growth at 20 ppm [3] | inhibition of growth at 20 ppm [4]

Cc1c([C@H]2CN(C(=O)CCCCC3CC3)[C@@H](C)c3ccccc32)cnn1C [Compound P-47, 5-cyclopropyl-1-[(1S,4S)-4-(1,5-dimethylpyrazol-4-yl)-1-methyl-3,4-dihydro-1H-isoquinolin-2-yl]pentan-1-one]
≥ 80%: pest or weed control at 200 ppm (Alternaria solani) | inhibition of growth at 20 ppm [1] | inhibition of growth at 20 ppm [2] | inhibition of growth at 20 ppm [3] | pest or weed control at 200 ppm (Pyrenophora teres) | inhibition of growth at 20 ppm [4]

Cc1c(C2CN(C(=O)NCCCCCF)Cc3ccccc32)cnn1C (stereo not drawn) [Compound P-49, 4-(1,5-dimethylpyrazol-4-yl)-N-(5-fluoropentyl)-3,4-dihydro-1H-isoquinoline-2-carboxamide]
≥ 80%: pest or weed control at 200 ppm (Pyrenophora teres) | inhibition of growth at 20 ppm [4]

Cc1c(C2CN(C(=O)NCCCCC(F)F)Cc3ccccc32)cnn1C (stereo not drawn) [Compound P-50, N-(5,5-difluoropentyl)-4-(1,5-dimethylpyrazol-4-yl)-3,4-dihydro-1H-isoquinoline-2-carboxamide]
≥ 80%: pest or weed control at 200 ppm (Pyrenophora teres) | inhibition of growth at 20 ppm [4]
